Data on 19 molecules can be found in PubChem BioAssay AID2061108 (Research group of Professor Matthew Todd, School of …, 2025).

Structures are written as SMILES. Calls of active or inactive are those of the source. How the calls were made is not given here.

Common to all, as to experiment: antibacterial and antifungal growth inhibition panel, profiling panel, Idler compounds, first plate, PMBN-permeabilized strains (AID 2061108)
Holding throughout (set-up): haemolysis: dose or concentration left out as unconfirmed

In test [1] the test system is S. aureus ATCC 9144 growth inhibition, 100 uM. Particulars: S. aureus ATCC 9144 growth inhibition; at 100 µM; stronger effect = higher value.
Test [2] deals with M. abscessus growth inhibition, 10 uM. Conditions: S. aureus ATCC 9144 growth inhibition; measured here: M. abscessus; at 10 µM.
The subject of test [3] is A. baumannii ATCC 17978 growth inhibition, 100 uM. Particulars: S. aureus ATCC 9144 growth inhibition; measured here: A. baumannii ATCC 17978; at 100 µM; stronger effect = higher value.
In test [4] the test system is red blood cell haemolysis. Conditions: stronger effect = higher value; dose or concentration not given here.
In test [5] the test system is A. baumannii ATCC 17978 + PMBN growth inhibition, 100 uM. Particulars: A. baumannii plus PMBN growth inhibition, 100 µM; stronger effect = higher value.
The subject of test [6] is M. avium growth inhibition, 10 uM. Particulars: M. avium growth inhibition, 10 µM.
Test [7] deals with E. coli NCTC 12923 growth inhibition, 100 uM. Particulars: E. coli NCTC 12923 growth inhibition, 100 µM; stronger effect = higher value.
For test [8], the system named is C. albicans NCPF 3281 growth inhibition, 100 uM. Particulars: S. aureus ATCC 9144 growth inhibition; measured here: C. albicans NCPF 3281; at 100 µM; stronger effect = higher value.
In test [9] the test system is E. coli NCTC 12923 + PMBN growth inhibition, 100 uM. Particulars: S. aureus ATCC 9144 growth inhibition; measured here: E. coli plus PMBN; at 100 µM; stronger effect = higher value.

What is called inhibition is the drop in the measured response relative to a control, in per cent. Take `Nc1ncnc2cc(-c3cccc(S(=O)(=O)NC(=O)C4CCCN4)c3)sc12` (stereo unspecified): the inhibition was 48.7% (inactive) in [1]; -0.89% in test [2]; -13% in test [3]; -10.6% in test [5]; 5.56% in [6]; -67.2% in test [7]. In addition, the inhibition in test [8] was -16.7%; in test [9], -40.7%. In addition, the haemolysis in [4] turned out to be 0.251%.

Turning to `CCn1c(SCC(=O)N(C)c2ccccc2)nnc1-c1cn(C)nc1OC`, the inhibition is -11.4% (inactive) in [1]; 0.00036% in test [2]; -2.53% in [3]; 4.29% in [5]; -1.26% in [6]; -41.1% in [7]. In addition, the figures for the inhibition in test [8] and in test [9] were 8.04% and -23.5%, respectively. The haemolysis in test [4] was determined as 0.564%.

On to `O=S(=O)(c1ccc2nncn2c1)N(Cc1cccc(F)c1)c1ccc2c(c1)OCCO2`, for which the inhibition in test [1] was -8.6% (inactive); in test [2] it was -0.196%; in test [3], -2.17%; in test [5], 11.3%; in test [6] it was -0.711%; in test [7], -55.8%. In addition, the figures for the inhibition in test [8] and in [9] were -82.4% and -20.9%, respectively. For the same molecule, the haemolysis in test [4] came to 8.17%.

Regarding `NC(=O)C1CCN(c2nc(OCc3ccc(F)nc3)nc(N3CCn4c(nnc4C(F)(F)F)C3)n2)CC1`, the inhibition was 16.7% (inactive) in test [1]; 0.0526% in [2]; -4.58% in [3]; 11.7% in [5]; 1.56% in [6]; -2.57% in [7]. For the same molecule, the inhibition in test [8] was -84%; in test [9], -3.54%. The haemolysis in test [4] was determined as 0.123%.

As to `Cc1cc(NC(=O)c2ccc(F)c(C(C)(C)C#N)c2)nn1C`, the inhibition in test [1] was 1.75% (inactive); in test [2] it was 0.104%; in [3], -0.843%; in test [5], 22.3%; in test [6], -0.0495%; in [7], -2.97%. For the same molecule, the values for the inhibition in [8] and in [9] were -51.4% and -1.71%, respectively. The haemolysis in test [4] was found to be 0.0361%.

`O=C(c1ccccc1)c1ccc(NS(=O)(=O)c2cccc(Cl)c2)cc1`: the inhibition was 64.6% in [1]; -0.368% in test [2]; 15.2% in test [3]; 80.1% in [5]; 0.0647% in [6]; 4.05% in [7]. Besides, the values for the inhibition in test [8] and in test [9] were -41.2% and 86.3%, respectively. In test [4], the haemolysis worked out at 0.625%.

As for `NC(=O)C1CCN(c2nc(OCc3ccc(F)nc3)nc(N3CCCOCC3)n2)CC1`, the inhibition is 18.4% (inactive) in test [1]; -0.107% in test [2]; -0.843% in test [3]; 9.86% in [5]; 0.922% in [6]; -2.97% in test [7]. Moreover, the inhibition was -78.3% in test [8] and -2.07% in test [9]. In addition, the haemolysis in [4] stood at 1.34%.

On to `N#Cc1c(Cl)nc2ccccc2c1C(F)(F)F`, for which the inhibition was 10% (inactive) in [1]; 0.0452% in test [2]; 3.86% in test [3]; 31.1% in [5]; 0.667% in test [6]; -10% in [7]. Further, the values for the inhibition in [8] and in test [9] were -47.1% and -1.22%, respectively. The haemolysis in test [4] turned out to be 0.129%.

With `Cn1nc(C(C)(C)C)cc1NC(=O)Nc1ccc(Cl)cc1`, the inhibition was -18.4% in test [1]; -0.347% in test [2]; -12% in test [3]; 83% in test [5]; 0.442% in test [6]; 12.6% in test [7]. The results for the inhibition in test [8] and in test [9] were -75.2% and 99.4%, respectively. Besides, the haemolysis in [4] was 0.904%.

For `COc1cc2nc(Nc3cc(C)[nH]n3)nc(NC3CCN(C(=O)OC(C)(C)C)CC3)c2cc1OC`, the inhibition in test [1] is 99.8%; in [2] it was 0.14%; in test [3] it was 48.6%; in test [5], 70.4%; in test [6], 3.94%; in test [7], 14.5%. Besides, the inhibition in test [8] was -108%; in test [9] it was 78.8%. Besides, the haemolysis in [4] is 2.1%.

As to `CCC(C)C(N)C(=O)NS(=O)(=O)c1cccc(-c2cc3ncnc(N)c3s2)c1` (stereo unspecified), the inhibition in [1] was -39.6% (inactive); in test [2], -0.383%; in test [3] it was -17.8%; in [5], -15.9%; in [6], 10.3%; in test [7] it was -29.6%. In addition, the inhibition in test [8] is -21.7%; in [9] it was -27.4%. Also, in [4], the haemolysis was determined as 0.094%.

Take `O=C(N/N=C/c1ccc2cccc(O)c2n1)c1ccncc1`: the inhibition in test [1] was 23.3% (inactive); in [2] it was -0.775%; in test [3], 13.7%; in [5], 37.1%; in [6] it was -0.55%; in test [7], 8.65%. Moreover, the inhibition in test [8] is -33.7%; in [9], -1.73%. Besides, in test [4], the haemolysis came out at 0.565%.

On to `CCC(C)NS(=O)(=O)CCCOc1ccc(F)cc1` (stereo unspecified), for which the inhibition was 10.3% (inactive) in test [1]; -0.898% in test [2]; -4.88% in test [3]; 28.8% in [5]; -0.527% in test [6]; 0% in test [7]. Besides, the figures for the inhibition in test [8] and in [9] were -63.1% and -9.51%, respectively. Further, in test [4], the haemolysis is -0.19%.

For `COc1ccc2c(c1)nc(-c1ccc[nH]1)c1[nH]ccc12`, the inhibition was 102% in [1]; 0.154% in test [2]; 34.2% in test [3]; 101% in [5]; 1.82% in test [6]; 43.8% in test [7]. Moreover, the inhibition in test [8] came out at 101%; in test [9] it was 100%. The haemolysis in test [4] amounted to 0.0477%.

For the molecule `COc1cc(OC)cc(C2(NC(=O)c3ccc(N4CCOCC4)cc3)COC2)c1`, the inhibition is 11.7% (inactive) in test [1]; -0.558% in test [2]; 2.38% in test [3]; 19.4% in test [5]; -0.0617% in [6]; 0.541% in [7]. The inhibition is -72% in test [8] and 0.123% in [9]. In addition, the haemolysis in [4] is -0.148%.

In the case of `CC(C)CC(N)C(=O)NS(=O)(=O)c1cccc(-c2cc3ncnc(N)c3s2)c1` (stereo unspecified), the inhibition in [1] was -17.7% (inactive); in test [2] it was -0.687%; in test [3], -8.69%; in [5], -8.7%; in test [6], 12%; in [7], -84.3%. In addition, the inhibition was 43.5% in test [8] and -22.3% in test [9]. Further, the haemolysis in [4] was -0.408%.

As to `CS(=O)(=O)CCCNC[C@@H](O)c1ccccc1`, the inhibition was 14.7% (inactive) in test [1]; -0.256% in [2]; -0.12% in test [3]; 20.9% in test [5]; 0.187% in test [6]; -6.89% in [7]. The inhibition in test [8] is -65.9%; in test [9], 1.22%. The haemolysis in test [4] is 0.325%.

With `COc1cc2nc(N3CCC(N(C)C)C3)nc(N3CCN(C(=O)OC(C)(C)C)CC3)c2cc1OC` (stereo unspecified), the inhibition in test [1] is 7.89% (inactive); in [2], -0.0588%; in test [3], -7.35%; in test [5], 29.6%; in [6], 3.78%; in test [7] it was 2.57%. For the same molecule, the inhibition in [8] was -73.8%; in test [9] it was 10.1%. The haemolysis in [4] amounted to 0.172%.

Take `Nc1ncc(/C=N/NC(=O)c2ccncc2)cn1`: the inhibition was 19.2% (inactive) in test [1]; -0.71% in [2]; -1.43% in [3]; 11.3% in test [5]; 0.0378% in [6]; -0.946% in test [7]. For the same molecule, the inhibition in [8] is 3.92%; in test [9], -2.1%. In addition, the haemolysis in [4] was -0.164%.
